# Laboratory results published in patent US5744492A, “Method for inhibiting angiogenesis” (United States of America, priority 1994, dated 1998).
# Columns and labels:
# [1] = system: HUVECs; assay: HUVEC proliferation (crystal violet), 10% serum with ECGS; type: cell-based, human; details: for IC50: Homo sapiens, HUVEC, 10% serum with ECGS, n=3
# Procedure: (§1) Human umbilical vein endothelial cells (H 930) were generously supplied by Dr. Tom Maciag, American Red Cross (Gaithersburg, Md., USA) and were used between passages 9 and 14 to avoid senescence. HUVECs were grown on fibronectin-coated tissue culture plastic (200 μg/150 mm dish) in complete medium (Medium 199 (M-199) containing 5 U/mL preservative-free heparin, 25.5 μg/mL ECGS, 10% fetal bovine serum and 100 U/mL penicillin, 100 μg/mL streptomycin, and 0.25 μg/mL fungizone).
# The effect of compound 1 on HUVEC proliferation was examined over a 5 day period of culture. Cell monolayers were incubated with increasing concentrations of compound 1 and evaluated incrementally for growth inhibition.
# Growth inhibition of HUVECs by compound 1 was measured by crystal violet nuclear stain. Briefly, 50,000 cells were seeded per well in 24 well plates using complete medium in the presence of increasing concentrations of compound 1 (0.01-10 μM) or DMS0 vehicle control (0.1%) and cultures were incubated for 24-120 hours. After incubation, cells were washed carefully with Dulbecco's phosphate-buffered saline (DPBS), fixed and stained with 0.5% crystal violet in 20% methanol. Excess stain was removed with water, the cell monolayers were air-dried, and then bound stain was eluted with a 1:1 solution of 0.1N sodium citrate (pH 4.2): 100% ethanol. Optical density of the eluted samples was determined at 540 nm and the results were expressed as percent of DMSO control cell growth. Data are expressed as percentage of control value and are presented as mean±SEM (n=3).
# [2] = system: HUVECs; assay: HUVEC adhesion to basement membrane substrata; type: cell-based, human
# Procedure: as §1
# Adhesion of control and compound 1-treated HUVECs to specific substrata was tested as follows. Glass slides coated with specific adhesion substrata were prepared by placement of 10 μL aliquots of 25 nM each fibronectin,laminin, gelatin or type IV collagen into triplicate wells of multichamber slides. Slides were incubated at 37° C. for 2 hours and then air-dried overnight. The following day the slides were blocked with 300 μL of blocking buffer (Tris […] pH 7.8, NaCl 111 mM, CaCl2 5 mM, and 1% BSA) for 30 min at 37° C. HUVECs were harvested with trypsin-EDTA and allowed to recover at 37° C. in complete medium for at least 1 hr. The cells were then washed free of serum and resuspended at 1×10^6 cells/mL in control medium followed by addition to the coated wells (200 μL) and incubation at 37° C. for 90 min. After incubation, the slides were washed gently three times with DPBS and the adherent cells were fixed and stained as above. Five high power fields per well in triplicate were counted to determine the number of cells attached to the different substrata. Data are expressed as percentage of control cell adhesion (x±SEM, n=3).
smiles,measurement,setting,value
"NC(=O)c1nnn(Cc2cc(Cl)c(C(=O)c3ccc(Cl)cc3)c(Cl)c2)c1N [Compound 1, 5-amino-1-(4-(4-chlorobenzoyl)-3,5-dichlorobenzyl)1,2,3-triazole-4-carboxamide]",inhibition of endothelial cell proliferation (in words),"[1]; 0.01-10 μM, 24, 72 and 120 hrs",dose-dependent but not time-dependent inhibition
same,IC50,"[1]; 24 h, 1 day of culture",1310 ± 30 nM
same,IC50,"[1]; 72 h, 3 days of culture",2140 ± 30 nM
same,IC50,"[1]; 120 h, 5 days of culture",2080 ± 10 nM
same,inhibition of HUVEC adhesion to all substrata tested (in words),"[2]; 0-10 μM, 18 hr pretreatment",inhibited in a dose-dependent fashion
same,inhibition of HUVEC adhesion to collagen type IV (in words),"[2]; 1.0 μM, 18 hr pretreatment, P2<0.027",statistically significant
same,inhibition of HUVEC adhesion to laminin (in words),"[2]; 1.0 μM, 18 hr pretreatment, P2<0.04",statistically significant
same,inhibition of HUVEC adhesion to fibronectin (in words),"[2]; 1.0 μM, 18 hr pretreatment, P2<0.043",statistically significant
same,inhibition of HUVEC adhesion to laminin (in words),"[2]; 10.0 μM, 18 hr pretreatment, p2<0.004",statistically significant
same,inhibition of HUVEC adhesion to fibronectin (in words),"[2]; 10.0 μM, 18 hr pretreatment, p2<0.011",statistically significant
same,inhibition of HUVEC adhesion to collagen type IV (in words),"[2]; 10.0 μM, 18 hr pretreatment, p2<0.025",statistically significant
same,inhibition of HUVEC adhesion to gelatin (in words),[2]; preincubation of HUVECs with compound,did not significantly inhibit adhesion
